The source of these data is patent US11191746B2, “Composition for inhibiting a growth of cancer stem cells comprising ciclesonide” (JEJU NATIONAL UNIVERSITY INDUSTRY-ACADEMIC COOPERATION …, priority 2016, dated 2021).

For one test, the system named is IL-8. The test can be described thus: Human inflammatory cytokine assay (CBA), tumorspheres. The format is cell-based. The following applies: A549 tumorspheres. As for the experimental part:
Mixed capture beads were vortexed and 50 μl of beads were added to assay tubes. 50 μl of human inflammatory cytokine standard and the cultured tumorsphere solution were added to the assay tubes, and then mixed with a cytokine PE solution. After 3 hours, the mixed solution was washed and analyzed by flow cytometry (Accuri C6, BD, San Diego, Calif., USA).

In the next test the test system is MCF-7 cells. The test can be described thus: CD44 and CD24 expression flow cytometric analysis. The format is cell-based, human. The following applies: 24 hours, FACS. As for the experimental part: The expression of CD44 and CD24 in MCF-7 cells was measured by FACS analysis. After isolating and harvesting cells using 1× trypsin/EDTA, one million cells were suspended, labeled with an FITC-conjugated anti-human CD44 antibody and a PE-conjugated anti-human CD24 antibody (BD Pharmingen, San Diego, Calif., USA), and incubated at 4° C. for 30 minutes. The cells were then washed three times with 1× PBS and analyzed by flow cytometry (Accuri C6, BD, San Diego, Calif., USA).
(Flow cytometry measures light scatter and fluorescence of single cells or particles in a stream.)

For test [1], the system named is STAT3. The test can be described thus: Electrophoretic mobility shift assay (EMSA) of mammosphere nuclear extract. The format is cell-based, human. The following applies: ciclesonide-treated mammosphere nuclear extract. In general terms: In EMSA bound probe runs differently from free probe, usually more slowly.
The next test concerns Sox2. The test can be described thus: Real-time PCR of self-renewing genes in mammospheres. Format: cell-based, human. The note with it: RT-PCR, β-actin internal control. As for the experimental part:
(§1) The levels of transcripts were measured with a One Step SYBR PrimeScript RT-PCR kit (Takara, Tokyo, Japan) using SYBR green as a double-stranded DNA-specific dye in accordance with the manufacturer's protocol. One-step RT-PCR was performed on 1 μg of total RNA, 10 μl of 2× One Step SYBR RT-PCR Buffer IV, and 1 μl of PrimeScript 1 step Enzyme Mix II using PCR forward and reverse primers of each of CD44, NANOG, OCT4, C-myc, Sox2, Snail, and β-actin at a final volume of 20 μl per reaction.
(§2) The relative expression level of mRNA of the target gene was calculated using a comparative CT method. At least three independent PCR procedures were performed in accordance with statistical analysis. PCR products were normalized with the […] gene as an internal control.
(In general: Quantitative PCR measures a nucleic acid by following its amplification.)

A further test relates to C-myc. The description is as above. The following applies: RT-PCR, β-actin internal control. The format is cell-based, human. Here is the method:
as §1, §2

The next test deals with CD44. Described as above. The format is cell-based, human. The following applies: RT-PCR, β-actin internal control. As for the experimental part:
as §1, §2

In the next test the test system is Nanog. Described as above. Format: cell-based, human. The following applies: RT-PCR, β-actin internal control. As for the experimental part:
as §1, §2

In the next test the test system is Oct4. The test is described as above. The format is cell-based, human. The following applies: RT-PCR, β-actin internal control. Here is the method:
as §1, §2

Test [2] concerns STAT3. The test can be described thus: Western blotting of mammosphere nuclear proteins. The format is cell-based, human. The note with it: MCF-7 cells-derived mammospheres. As for the experimental part:
Proteins isolated from ciclesonide-treated MCF-7 or MDA-MB-231 mammospheres were separated on 10% SDS-PAGE and transferred to a polyvinylidene difluoride membrane (Millipore, Bedford, Mass., USA). The membrane was blocked in PBS-Tween 20 (0.1%, v/v) containing 5% skimmed milk at room temperature for 30 minutes. The blot was incubated at 4° C. overnight with a blocking solution containing primary antibodies. The primary antibodies used were as follows: Stat3, p65, Lamin B, and phospho-Stat3 (Cell Signaling, Beverly, Mass., USA). β-actin (Santa Cruz Biotechnology) was used as a loading control. After washing with PBS-Tween 20 (0.1%, v/v), the blot was incubated with horseradish peroxidase-conjugated secondary antibodies, and photosensitized with a chemiluminescence detection kit (Santa Cruz Biotechnology).

The test system of test [3] is MCF-7 cell xenograft tumor. The test can be described thus: Breast cancer xenograft model in NOD-SCID female nude mice. Format: in vivo. The note with it: MCF-7 xenograft, 10 mg/kg. As for the experimental part: A total of 12 NOD-SCID (BALB/cSIc (nu/nu)) female nude mice producing breast cancer cells were divided into two groups. […] The volume of tumors of each control mouse was measured every three days and calculated by the following equation: (width×length^2)/2. The other six nude mice received neoadjuvant chemotherapy using a test drug by infusion at an optimum dose of 10 mg/kg/day.

For the molecule `CC(C)C(=O)OCC(=O)[C@@]12O[C@H](C3CCCCC3)O[C@@H]1C[C@H]1[C@@H]3CCC4=CC(=O)C=C[C@]4(C)[C@H]3[C@@H](O)C[C@@]12C` [ciclesonide], the “production level of IL-8” value in the test on IL-8 is “reduced”. Moreover, the “subpopulation expressing CD44high/CD24low” value with MCF-7 cells is “reduced”. Moreover, the “binding between the biotin-labeled SIE probe and Stat3” value in the test with STAT3 [1] was “inhibited”. Also, the “expression of Sox2” value in the test on Sox2 is reported as “reduced”. The “expression of C-myc” value with C-myc is reported as “reduced”. The “expression of CD44” value in the test on CD44 is given as “reduced”. Besides, the “expression of Nanog” value with Nanog is listed as “reduced”. The “expression of Oct4” value in the test on Oct4 is listed as “reduced”. In addition, in the test on STAT3 [2], the “phosphorylation of nuclear STAT3 protein compared to a control” value is “reduced”. In [3], the “tumor volume vs control not treated” value is “smaller” and the “tumor weight vs control not treated” value is recorded as “smaller”.
